The values that follow are results of earlier work, collected in publication PMC5425492 (Clinical Pharmacokinetics, 2016).

As for insulin degludec, the “Within-subject variability in glucose-lowering effect” value is given as 20%.

For the substance insulin detemir, the “Within-subject variability in glucose-lowering effect” value is given as 27%.
